Source: patent US10253002B2, “Compounds and methods of treating infections” (Neoculi Pty Ltd., priority 2013, dated 2019)
In brackets after ≈: the same amount, converted by molar mass. Several values for one entry are separate records, joined by “and”; a condition that tells them apart may be missing. Equal values may be shown once. Read-outs that look alike come from different tables or passages of the source.

Key:
VRE = experiment: Broth microdilution MIC, Example 7 (NCL812 and analogues); type: cell-based, Enterococcus spp.; conditions: for MIC: Enterococcus, VRE
Summary of the method: (§1)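 Values are MICs in μg/ml from broth microdilution per CLSI, with growth scored against a drug-free well.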

MRSA = experiment: as above; type: cell-based, Staphylococcus aureus; conditions: for MIC: Staphylococcus aureus, MRSA
Summary of the method: as §1

[1] = test system: Staphylococcus pseudintermedius isolates (MSSP and MRSP); experiment: MIC (CLSI), Example 6; type: cell-based; conditions: for MIC: Staphylococcus pseudintermedius
Procedure: Anti-staphylococcal compounds were then tested against all 23 isolates and minimum inhibitory concentrations (MIC) were determined according to standard protocols. After the MICs were determined, the minimum bactericidal concentrations were performed to determine if these compounds are bacteriostatic or bacteriocidal.

[2] = 23 Staphylococcus pseudintermedius isolates

For `N=C(N/N=C/c1ccc(Cl)cc1)N/N=C/c1ccc(Cl)cc1` [NCL812, 1,3-bis[(E)-(4-chlorophenyl)methyleneamino]guanidine], the MIC (VRE; 24 h, read-out: MIC (μg/ml) at 24 hours, VRE 1, isolate VRE 1, 24 hours, 1st and 2nd replicate rows) was 2 µg/mL (≈ 5.98 µM), the MIC (VRE; 24 h, read-out: MIC (μg/ml) at 24 hours, VRE 2, isolate VRE 2, 24 hours, 1st and 2nd replicate rows) was 2 µg/mL (≈ 5.98 µM) and the MIC (VRE; VRE 002 [H12c], Phase I, 1st, read-out: MIC) was 4 µg/mL (≈ 12 µM). It also gave an MIC (VRE; VRE 002 [H12c], Phase I, 2nd, read-out: MIC) of 4 µg/mL (≈ 12 µM), an MIC (VRE; VRE 002 [H12c], Phase II, 1st, read-out: MIC) of 2 µg/mL (≈ 5.98 µM) and an MIC (VRE; VRE 002 [H12c], Phase II, 2nd, read-out: MIC) of 2 µg/mL (≈ 5.98 µM). It also gave an MIC (VRE; VRE 003 [H14t], Phase I, 1st, read-out: MIC) of 2 µg/mL (≈ 5.98 µM), an MIC (VRE; VRE 003 [H14t], Phase I, 2nd, read-out: MIC) of 2 µg/mL (≈ 5.98 µM) and an MIC (VRE; VRE 003 [H14t], Phase II, 1st, read-out: MIC) of 2 µg/mL (≈ 5.98 µM). The MIC (VRE; VRE 003 [H14t], Phase II, 2nd, read-out: MIC) was 2 µg/mL (≈ 5.98 µM), the MIC (VRE; VRE 004 [H16c], Phase I, 1st, read-out: MIC) was 4 µg/mL (≈ 12 µM) and the MIC (VRE; VRE 004 [H16c], Phase I, 2nd, read-out: MIC) was 4 µg/mL (≈ 12 µM). For the same compound, the MIC (VRE; VRE 004 [H16c], Phase II, 1st, read-out: MIC) was 2 µg/mL (≈ 5.98 µM), the MIC (VRE; VRE 004 [H16c], Phase II, 2nd, read-out: MIC) was 2 µg/mL (≈ 5.98 µM) and the MIC (VRE; VRE 005 [H17c], Phase I, 1st, read-out: MIC) was 2 µg/mL (≈ 5.98 µM). For the same compound, the MIC (VRE; VRE 005 [H17c], Phase I, 2nd, read-out: MIC) was 2 µg/mL (≈ 5.98 µM), the MIC (VRE; VRE 005 [H17c], Phase II, 1st, read-out: MIC) was 2 µg/mL (≈ 5.98 µM) and the MIC (VRE; VRE 005 [H17c], Phase II, 2nd, read-out: MIC) was 2 µg/mL (≈ 5.98 µM). It also gave an MIC (VRE; VRE 006 [H19t], Phase I, 1st, read-out: MIC) of 2 µg/mL (≈ 5.98 µM), an MIC (VRE; VRE 006 [H19t], Phase I, 2nd, read-out: MIC) of 2 µg/mL (≈ 5.98 µM) and an MIC (VRE; VRE 006 [H19t], Phase II, 1st, read-out: MIC) of 2 µg/mL (≈ 5.98 µM). For the same compound, the MIC (VRE; VRE 006 [H19t], Phase II, 2nd, read-out: MIC) was 2 µg/mL (≈ 5.98 µM), the MIC (VRE; VRE 007 [H23c], Phase I, 1st, read-out: MIC) was 4 µg/mL (≈ 12 µM) and the MIC (VRE; VRE 007 [H23c], Phase I, 2nd, read-out: MIC) was 4 µg/mL (≈ 12 µM). For the same compound, the MIC (VRE; VRE 007 [H23c], Phase II, 1st, read-out: MIC) was 2 µg/mL (≈ 5.98 µM), the MIC (VRE; VRE 007 [H23c], Phase II, 2nd, read-out: MIC) was 2 µg/mL (≈ 5.98 µM) and the MIC (VRE; VRE 008 [H16c(dc)], Phase I, 1st, read-out: MIC) was 4 µg/mL (≈ 12 µM). It also gave an MIC (VRE; VRE 008 [H16c(dc)], Phase I, 2nd, read-out: MIC) of 4 µg/mL (≈ 12 µM), an MIC (VRE; VRE 008 [H16c(dc)], Phase II, 1st, read-out: MIC) of 2 µg/mL (≈ 5.98 µM) and an MIC (VRE; VRE 008 [H16c(dc)], Phase II, 2nd, read-out: MIC) of 2 µg/mL (≈ 5.98 µM). The MIC (VRE; VRE 009 [H25c], Phase I, 1st, read-out: MIC) was 4 µg/mL (≈ 12 µM), the MIC (VRE; VRE 009 [H25c], Phase I, 2nd, read-out: MIC) was 4 µg/mL (≈ 12 µM) and the MIC (VRE; VRE 009 [H25c], Phase II, 1st, read-out: MIC) was 2 µg/mL (≈ 5.98 µM). The MIC (VRE; VRE 009 [H25c], Phase II, 2nd, read-out: MIC) was 2 µg/mL (≈ 5.98 µM), the MIC (VRE; VRE 010 [H26c(w)], Phase I, 1st, read-out: MIC) was 4 µg/mL (≈ 12 µM) and the MIC (VRE; VRE 010 [H26c(w)], Phase I, 2nd, read-out: MIC) was 4 µg/mL (≈ 12 µM). It also gave an MIC (VRE; VRE 010 [H26c(w)], Phase II, 1st, read-out: MIC) of 2 µg/mL (≈ 5.98 µM), an MIC (VRE; VRE 010 [H26c(w)], Phase II, 2nd, read-out: MIC) of 2 µg/mL (≈ 5.98 µM) and an MIC (VRE; VRE 011 [H26c(dc)], Phase I, 1st, read-out: MIC) of 2 µg/mL (≈ 5.98 µM). For the same compound, the MIC (VRE; VRE 011 [H26c(dc)], Phase I, 2nd, read-out: MIC) was 4 µg/mL (≈ 12 µM), the MIC (VRE; VRE 011 [H26c(dc)], Phase II, 1st, read-out: MIC) was 2 µg/mL (≈ 5.98 µM) and the MIC (VRE; VRE 011 [H26c(dc)], Phase II, 2nd, read-out: MIC) was 2 µg/mL (≈ 5.98 µM). For the same compound, the MIC (VRE; VRE 012 [H35t], Phase I, 1st, read-out: MIC) was 2 µg/mL (≈ 5.98 µM), the MIC (VRE; VRE 012 [H35t], Phase I, 2nd, read-out: MIC) was 2 µg/mL (≈ 5.98 µM) and the MIC (VRE; VRE 012 [H35t], Phase II, 1st, read-out: MIC) was 2 µg/mL (≈ 5.98 µM). The MIC (VRE; VRE 012 [H35t], Phase II, 2nd, read-out: MIC) was 2 µg/mL (≈ 5.98 µM), the MIC (VRE; VRE 013 [H37c(w)], Phase I, 1st, read-out: MIC) was 2 µg/mL (≈ 5.98 µM) and the MIC (VRE; VRE 013 [H37c(w)], Phase I, 2nd, read-out: MIC) was 2 µg/mL (≈ 5.98 µM). For the same compound, the MIC (VRE; VRE 013 [H37c(w)], Phase II, 1st, read-out: MIC) was 2 µg/mL (≈ 5.98 µM), the MIC (VRE; VRE 013 [H37c(w)], Phase II, 2nd, read-out: MIC) was 2 µg/mL (≈ 5.98 µM) and the MIC (VRE; VRE 014 [H37c(g)], Phase I, 1st, read-out: MIC) was 4 µg/mL (≈ 12 µM). It also gave an MIC (VRE; VRE 014 [H37c(g)], Phase I, 2nd, read-out: MIC) of 4 µg/mL (≈ 12 µM), an MIC (VRE; VRE 014 [H37c(g)], Phase II, 1st, read-out: MIC) of 2 µg/mL (≈ 5.98 µM) and an MIC (VRE; VRE 014 [H37c(g)], Phase II, 2nd, read-out: MIC) of 2 µg/mL (≈ 5.98 µM). For the same compound, the MIC (VRE; bioassay ranking, read-out: VRE) was 1.75 µg/mL (≈ 5.24 µM), the “MIC (μg/ml) at 24 hours, VRE 1” value (VRE; isolate VRE 1, 24 hours, 1st and 2nd replicate rows) was 2 µg/mL (≈ 5.98 µM) and the “MIC (μg/ml) at 24 hours, VRE 2” value (VRE; isolate VRE 2, 24 hours, 1st and 2nd replicate rows) was 2 µg/mL and 1 µg/mL. It also gave an MIC (MRSA; MRSA 616, Phase I, 1st, read-out: MIC) of 8 µg/mL (≈ 23.9 µM), an MIC (MRSA; MRSA 718, Phase I, 2nd, read-out: MIC) of 8 µg/mL (≈ 23.9 µM) and an MIC (MRSA; MRSA 747, Phase I, 1st, read-out: MIC) of 8 µg/mL (≈ 23.9 µM). For the same compound, the MIC (MRSA; bioassay ranking, read-out: MRSA) was 3 µg/mL (≈ 8.98 µM), the “MIC (μg/ml) at 24 hours, MRSA 2” value (MRSA; isolate MRSA 2, 24 hours, 1st and 2nd replicate rows) was 2 µg/mL (≈ 5.98 µM) and the MIC50 [1, 2] was 2 µg/mL (≈ 5.98 µM). It also gave an MIC range [1, 2] of 1 to 4 µg/mL, an MIC range ([1]; Staphylococcus pseudintermedius isolates) of 1 to 4 µg/mL and an MIC ([1]; 23 Staphylococcus pseudintermedius isolates, read-out: MIC mode) of 2 µg/mL (≈ 5.98 µM). It also gave an MIC ([1]; Staphylococcus pseudintermedius isolates, read-out: MIC mode) of 2 µg/mL (≈ 5.98 µM), an MIC ([1]; isolate S2P2, read-out: MIC) of 2 µg/mL (≈ 5.98 µM) and an MIC ([1]; isolate S3P3, read-out: MIC) of 2 µg/mL (≈ 5.98 µM). For the same compound, the MIC ([1]; isolate S4P4, read-out: MIC) was 1 µg/mL (≈ 2.99 µM), the MIC ([1]; isolate S5P5, read-out: MIC) was 2 µg/mL (≈ 5.98 µM) and the MIC ([1]; isolate S6P6, read-out: MIC) was 2 µg/mL (≈ 5.98 µM). For the same compound, the MIC ([1]; isolate S7P7, read-out: MIC) was 2 µg/mL (≈ 5.98 µM), the MIC ([1]; isolate S8P8, read-out: MIC) was 2 µg/mL (≈ 5.98 µM) and the MIC ([1]; isolate S9P9, read-out: MIC) was 2 µg/mL (≈ 5.98 µM). For the same compound, the MIC ([1]; isolate S10P10, read-out: MIC) was 2 µg/mL (≈ 5.98 µM), the MIC ([1]; isolate S12P12, read-out: MIC) was 2 µg/mL (≈ 5.98 µM) and the MIC ([1]; isolate S13P13, read-out: MIC) was 2 µg/mL (≈ 5.98 µM). For the same compound, the MIC ([1]; isolate S14P14, read-out: MIC) was 2 µg/mL (≈ 5.98 µM), the MIC ([1]; isolate S16P16, read-out: MIC) was 2 µg/mL (≈ 5.98 µM) and the MIC ([1]; isolate S17P17, read-out: MIC) was 2 µg/mL (≈ 5.98 µM). The MIC ([1]; isolate S21P21, read-out: MIC) was 2 µg/mL (≈ 5.98 µM) and the MIC ([1]; isolate S23P23, read-out: MIC) was 2 µg/mL (≈ 5.98 µM).
